Data taken from article PMC12473123, “Structure–Function Insights into Quinuclidine-3-One BisQACs: Synthesis, Modulation of Bacterial Resistance, Structure–Activity Relationship, and Biological Profiling” (Pharmaceuticals, 2025).

Legend:
[1] = tested on: Pseudomonas aeruginosa ATCC 27853; experiment: Broth microdilution MIC; assay type: cell-based; settings: Pseudomonas aeruginosa, ATCC27853, read-out: Minimum Inhibitory Concentrations (MIC)
HEK293 cells = experiment: Cytotoxicity MTS assay; assay type: cell-based, human; settings: Homo sapiens, HEK293, 48 h, read-out: IC50 HEK293
Experimental: (§1) The cytotoxic potential of the selected drug candidates was evaluated using the CellTiter 96® AQueous One Solution Cell Proliferation Assay (Promega, Madison, WI, USA), following the manufacturer’s protocol. Human cell lines RPE1 and HEK293 were cultured at 37 °C in a humidified incubator with 5% CO2. Test compounds were dissolved in the appropriate growth medium and serially diluted across a range of concentrations in 96-well microtiter plates. Each well was seeded with 5000 cells and incubated for 48 h under standard culture conditions. Following this incubation period, 20 µL of MTS reagent was added to each well, and the plates were further incubated for 3 h to allow for color development. Absorbance was measured at 490 nm using a microplate reader to determine cell viability. Cytotoxicity was quantified as the half-maximal inhibitory concentration (IC50), defined as the concentration of compound that reduced cell viability by 50%. […] IC50 values were calculated using GraFit 6.0 software by plotting compound concentration against absorbance and fitting the data to a sigmoidal dose–response curve.

RPE1 cells = experiment: Cytotoxicity MTS assay; assay type: cell-based, human; settings: Homo sapiens, RPE-1, 48 h, read-out: IC50 RPE1
Experimental: as §1

[2] = tested on: Staphylococcus aureus ATCC 25923; experiment: Biofilm inhibition assay (crystal violet); assay type: cell-based
Experimental: (§2) The ability of the candidate compounds to inhibit biofilm formation was evaluated by determining the minimum biofilm inhibitory concentration (MBIC) against the biofilm-forming strains Staphylococcus aureus ATCC 25923 and Listeria monocytogenes ATCC 7644. Overnight bacterial cultures were diluted in fresh, pre-warmed Mueller–Hinton broth (MHB) and incubated at 37 °C with constant shaking at 220 rpm. Once the cultures reached the exponential growth phase (OD600 = 0.3–0.5), they were standardized to a final concentration of 4 × 10^6 CFU/mL.
(§3) Plates were incubated at 37 °C for 24 to 48 h, depending on the bacterial strain. After incubation, the planktonic cells were carefully aspirated to preserve the integrity of the biofilm layer. Wells were gently rinsed with sterile ultrapure Milli-Q water and air-dried at 60 °C for 1 h to fix the biofilms. Biofilm formation was quantified using a crystal violet (CV) staining method. Wells were stained with 100 µL of 0.1% CV solution and incubated at room temperature for 1 h. Excess dye was removed by rinsing with sterile ultrapure Milli-Q water, followed by air-drying. Bound CV was solubilized with 100 µL of 70% ethanol and incubated for 30 min. The solubilized dye was transferred to a fresh plate, and absorbance was measured at 595 nm using a microplate reader (Bio-Tek EL808, Winooski, VT, USA). Absorbance values were directly proportional to biofilm biomass. Untreated bacterial cultures served as positive controls for biofilm formation, while sterile MHB served as the negative control.

[3] = tested on: Escherichia coli ATCC 25922; experiment: Broth microdilution MIC; assay type: cell-based; settings: Escherichia coli, ATCC25922, read-out: Minimum Inhibitory Concentrations (MIC)
[4] = tested on: Listeria monocytogenes ATCC 7644; experiment: Broth microdilution MIC; assay type: cell-based; settings: Listeria monocytogenes, ATCC7644, read-out: Minimum Inhibitory Concentrations (MIC), Listeria monocytogenes ATCC 7644
[5] = tested on: Staphylococcus aureus ATCC 33591 (methicillin-resistant); experiment: Broth microdilution MIC; assay type: cell-based; settings: Staphylococcus aureus, ATCC33591, read-out: Minimum Inhibitory Concentrations (MIC)
[6] = tested on: Staphylococcus aureus ATCC 25923; experiment: Time-kill kinetics assay; assay type: cell-based
Experimental: To assess the temporal dynamics of bacterial viability upon exposure to the test compounds, a time-kill kinetics assay was performed using the Gram-positive reference strain Staphylococcus aureus ATCC 25923. An overnight culture of the strain was subcultured into fresh, pre-warmed Mueller–Hinton broth (MHB) and incubated under aerobic conditions at 37 °C with agitation (220 rpm) until reaching the early exponential growth phase. The bacterial suspension was then standardized to an initial concentration of approximately 5 × 10^5 CFU/mL. […] Wells containing untreated bacterial cultures served as growth controls. Immediately after mixing, a 10 µL sample from each well was withdrawn, diluted in 990 µL of MHB, and serially diluted tenfold up to 10^−6. From each dilution, 20 µL was plated on MHB agar using a sterile loop to determine the initial bacterial count (time zero). The treated plates were incubated at 37 °C, and additional samples were collected at predetermined time points (2, 4, 6, 8, 12, and 24 h) following the same dilution and plating protocol. After 24 h of incubation at 37 °C, colonies were counted, and viable bacterial counts were expressed as log10 CFU/mL for each time point. Bactericidal activity was evaluated by plotting the log10 CFU/mL over time, providing a dynamic profile of the compound’s killing kinetics.

[7] = tested on: Enterococcus faecalis ATCC 29212; experiment: Broth microdilution MIC; assay type: cell-based; settings: Enterococcus faecalis, ATCC29212, read-out: Minimum Inhibitory Concentrations (MIC), Enterococcus faecalis ATCC 29212
[8] = tested on: Staphylococcus aureus Clinical/MRSA; experiment: Broth microdilution MIC; assay type: cell-based; settings: Staphylococcus aureus, MRSA, read-out: Minimum Inhibitory Concentrations (MIC)
[9] = tested on: Bacillus cereus ATCC 14579; experiment: Broth microdilution MIC; assay type: cell-based; settings: ATCC14579, read-out: Minimum Inhibitory Concentrations (MIC), Bacillus cereus ATCC 14579
[10] = tested on: Staphylococcus aureus ATCC 25923; experiment: Time-resolved growth kinetics; assay type: cell-based; settings: subinhibitory concentrations, relative to 2(QC16)3 and 2(QC16)6
Experimental: (§4) The antimicrobial activity of the candidate compounds against Staphylococcus aureus ATCC 25923 and Listeria monocytogenes ATCC 7644 was further evaluated using a time-resolved growth kinetics assay in 96-well microtiter plates. Overnight bacterial cultures were diluted in fresh, pre-warmed Mueller–Hinton broth (MHB) and incubated at 37 °C with orbital shaking at 220 rpm. Upon reaching the exponential growth phase (OD600 = 0.3–0.5), cultures were standardized to a final concentration of 5 × 10^4 CFU/mL. Aliquots (50 µL) of the standardized inoculum were dispensed into wells containing either no antimicrobial agent (negative control) or the test compounds at concentrations corresponding to ½ MIC and MIC. Bacterial growth was continuously monitored over a 24 h period by measuring absorbance at 595 nm every 10 min using a Bio-Tek EL808 microplate reader (Winooski, VT, USA). Growth kinetics were assessed by comparing the optical density profiles of treated samples against the untreated control. Each experiment was performed independently twice, with all conditions tested in triplicate. Data are presented as the mean values of these replicates.

[11] = tested on: Salmonella enterica (food isolate); experiment: Broth microdilution MIC; assay type: cell-based; settings: read-out: Minimum Inhibitory Concentrations (MIC)
[12] = tested on: Staphylococcus aureus ATCC 25923; experiment: Broth microdilution MIC; assay type: cell-based; settings: Staphylococcus aureus, ATCC25923, read-out: Minimum Inhibitory Concentrations (MIC)
[13] = tested on: Listeria monocytogenes ATCC 7644; experiment: Biofilm inhibition assay (crystal violet); assay type: cell-based; settings: Listeria monocytogenes, ATCC7644, read-out: biofilm inhibition
Experimental: as §2
as §3, with “Aliquots (50 µL) of the standardized bacterial suspension were inoculated into 96-well microtiter plates containing the test compounds at final concentrations of 100, 50, 25, and 12.5 µg/mL. Plates” for “Plates”

[14] = tested on: Listeria monocytogenes ATCC 7644; experiment: Time-resolved growth kinetics; assay type: cell-based; settings: MIC and ½ MIC
Experimental: as §4

Question: For `CCCCCCCCCCCCCCNC1C[N+]2(CCCCCC[N+]34CCC(CC3)C(NCCCCCCCCCCCCCC)C4)CCC1CC2` (racemic) [2(QC14)6, (±)-1,1′-(Hexane-1,6-diyl) bis(3-(tetradecylamino)quinuclidinium) dibromide], which MIC [1] is on record?
Answer: Its MIC is > 75 µM.

Question: And the IC50 (HEK293 cells)?
Answer: The IC50 was 42 µM.

Question: And the IC50 (RPE1 cells)?
Answer: Its IC50 is 61 µM.

Question: What about the biofilm inhibition ([2]; S. aureus ATCC 25923, 6.25 µg/mL) of the same compound?
Answer: The biofilm inhibition was 13%.

Question: And the biofilm inhibition ([2]; S. aureus ATCC 25923, 12.5 µg/mL)?
Answer: Its biofilm inhibition is 15%.

Question: What about the biofilm inhibition ([2]; S. aureus ATCC 25923, 25 µg/mL) of the same compound?
Answer: Its biofilm inhibition is 34%.

Question: And the biofilm inhibition ([2]; S. aureus ATCC 25923, 50 µg/mL)?
Answer: Its biofilm inhibition is “remained effective”.

Question: And the biofilm inhibition ([2]; S. aureus ATCC 25923, 100 µg/mL)?
Answer: Its biofilm inhibition is > 90%.

Question: What about the MIC [3] of the same compound?
Answer: Its MIC is 19 µM.

Question: What about the MIC [4] of the same compound?
Answer: Its MIC is 19 µM.

Question: What about the MIC [5] of the same compound?
Answer: The MIC was 19 µM.

Question: What about the “time to rapid bactericidal activity” value ([6]; S. aureus ATCC 25923) of the same compound?
Answer: Its value is ≤ 3 h.

Question: What about the “time to complete killing” value ([6]; S. aureus ATCC 25923, 2 × MIC) of the same compound?
Answer: The value was 2 h.

Question: And the MIC [7]?
Answer: The MIC was 38 µM.

Question: What about the MIC [8] of the same compound?
Answer: Its MIC is 75 µM.

Question: What about the MIC [9] of the same compound?
Answer: The MIC was 75 µM.

Question: What about the “growth curve slope in exponential phase” value [10] of the same compound?
Answer: The value was “shallower growth curve slope”.

Question: And the MIC [11]?
Answer: The MIC was 75 µM.

Question: What about the MIC [12] of the same compound?
Answer: Its MIC is 38 µM.

Question: With `CCCCCCCCCCCCCCCCNC1C[N+]2(CCCC[N+]34CCC(CC3)C(NCCCCCCCCCCCCCCCC)C4)CCC1CC2` (racemic) [2(QC16)4, (±)-1,1′-(Butane-1,4-diyl) bis(3-(hexadecylamino)quinuclidinium) dibromide] as the compound, how does the MIC [1] read?
Answer: The MIC was > 75 µM.

Question: And the IC50 (HEK293 cells)?
Answer: Its IC50 is 25 µM.

Question: And the IC50 (RPE1 cells)?
Answer: Its IC50 is 34 µM.

Question: And the MIC [3]?
Answer: Its MIC is 19 µM.

Question: What about the MIC [4] of the same compound?
Answer: The MIC was 9 µM.

Question: And the inhibition at 6.25 µg/mL [13]?
Answer: The inhibition at 6.25 µg/mL was > 50%.

Question: And the inhibition at 12.5 µg/mL [13]?
Answer: The inhibition at 12.5 µg/mL was > 70%.

Question: What about the inhibition at 25 µg/mL [13] of the same compound?
Answer: The inhibition at 25 µg/mL was > 90%.

Question: What about the inhibition at 50 µg/mL [13] of the same compound?
Answer: Its inhibition at 50 µg/mL is > 90%.

Question: And the inhibition at 100 µg/mL [13]?
Answer: Its inhibition at 100 µg/mL is 92%.

Question: And the MIC [5]?
Answer: The MIC was 9 µM.

Question: What about the MIC [7] of the same compound?
Answer: The MIC was 38 µM.

Question: And the MIC [8]?
Answer: The MIC was 75 µM.

Question: And the MIC [9]?
Answer: Its MIC is > 75 µM.

Question: What about the “effect on bacterial growth” value [14] of the same compound?
Answer: The value was “pronounced inhibitory effect”.

Question: What about the MIC [11] of the same compound?
Answer: Its MIC is 75 µM.

Question: What about the MIC [12] of the same compound?
Answer: The MIC was 75 µM.
